Measured values as given in patent US20120157477A1, “REVERSAL OF L-DOPA-INDUCED DYSKINESIA BY NEURONAL NICOTINIC RECEPTOR LIGANDS” (TARGACEPT, INC., priority 2009, published 2012).
“Also recorded” adds a separate entry of the source.

Columns and labels:
[1] = system: rodents; assay: Toxicological studies, rodents; assay type: in vivo
[2] = system: dogs; assay: Toxicological studies, dogs; assay type: in vivo
[3] = system: primates; assay: Toxicological studies, primates; assay type: in vivo
[4] = system: rats; assay: Safety studies in rats; assay type: in vivo, rat
[5] = system: L-dopa-treated unilateral 6-hydroxydopamine-lesioned rats; assay: L-dopa-induced AIMs (dyskinesia) in unilateral 6-OHDA-lesioned rats; assay type: in vivo, rat
Experimental: The subtype selective NNR agonist Compound A, stimulates […] and to a lesser extent α6* NNRs. […] Experiments were performed using male Sprague-Dawley rats that were unilaterally lesioned with 6-OHDA (Sigma Chemical Co., St. Louis, Mo.) as previously described (Cenci et al., 1998; Cenci et al., 2002). 6-OHDA was dissolved in 0.02% ascorbic acid/saline at a concentration of 3 μg/μl. Compound A was systemically infused via osmotic minipumps (Alzet model 2006; Durect Corporation, Cupertino, Calif., USA), which delivered drug at a rate of 3.6 μl/day for 6 wk. […] Pumps were pre-filled with either sterilized water or Compound A base in water (pH 7.0) to provide the required doses (0.03, 0.1, 0.3 mg/kg/d). The minipumps were subcutaneously implanted along the dorsal aspect of the neck between the shoulder blades, according to the manufacturer's instruction, under isofluorane anesthesia. After implantation, rats were administered buprenorphine (0.02 mg/kg sc) for post-operative pain. Two weeks after initiation of drug treatment, the rats were administered single daily subcutaneous injections of 6 to 8 mg/kg L-dopa methyl ester plus 15 mg/kg benserazide. Two μl aliquots were stereotaxically injected at each of two sites for a total of 8 to 12 μg into the right ascending dopamine fiber bundle. Infusion of 6-OHDA into the target area was over a 2-min period, with the cannula maintained at the site of injection for a further 2 min. Two to three weeks after lesioning, rats were tested for drug-induced rotational behavior in an automated behavioral measurement apparatus (ROTOMAX, AccuScan Instruments Inc. Columbus, Ohio, USA). Each rat was placed in a cylindrical glass chamber for 30 min for acclimatization, after which 4.0 mg/kg amphetamine (Sigma Chemical Co., St. Louis, Mo.) was administered intraperitoneally (ip). Amphetamine-induced rotational behavior was monitored for 90 min, with rats making at least 200 ipsilateral turns/90 min used for further study.
L-dopa-induced AIMs were determined as indicated. See FIG. 1 for experiment dosing and testing regimen. Behavioral testing was done in the morning starting between 9 and 10 AM. Three different AIMs subtypes were measured including (1) axial dystonia, contralateral twisted posturing of the neck and upper body; (2) abnormal orolingual movements, stereotyped jaw movements and contralateral tongue protrusion; and (3) abnormal forelimb movements, repetitive rhythmic jerks or dystonic posturing of the contralateral forelimb and/or grabbing movements of the contralateral paw. See, for example, Carta M, Lindgren HS, Lundblad M, Stancampiano R, Fadda F, Cenci M A (2006), Role of Striatal L-DOPA in the Production of Dyskinesia in 6-hydroxydopamine Lesioned Rats. J Neurochem 96:1718-172; Cenci M A, Lee C S, Bjorklund A (1998) L-DOPA-induced dyskinesia in the rat is associated with striatal overexpression of prodynorphin- and glutamic acid decarboxylase mRNA; Eur J Neurosci 10:2694-2706; Cenci M A, Whishaw I Q, Schallert T (2002) Animal models of neurological deficits: how relevant is the rat? Nat Rev Neurosci 3:574-579; Bordia, T., Campos, C., Huang, L. Z. & Quik, M., “Continuous And Intermittent Nicotine Treatment Reduces L-3,4-Dihydroxyphenylalanine (L-Dopa)-Induced Dyskinesias In A Rat Model Of Parkinson's Disease,” J Pharmacol Exp Ther 327: 239-47 (2008)). Rats were scored on a scale from 0 to 4 for each of these three AIM subtypes as follows: 1=occasional; 2=frequent; 3=continuous but interrupted by sensory distraction; and 4=continuous, severe, not interrupted by sensory distraction. Animals were evaluated for AIMs for an initial 20 min baseline period, as well as for 3 h following L-dopa injection by a blinded rater. Assessment of the different subtypes of AIMs was done over 20 min sessions, thus yielding a total of 9 sessions of testing per animals. The maximum possible score for each animal was thus 108 (maximum score per session=12; number of sessions over 3 h=9). […]

[6] = system: Parkinsonian rats; assay: Limb use asymmetry (cylinder) test of motor function in Parkinsonian rats; assay type: in vivo, rat
Experimental: Because drugs that reduce AIMs may worsen Parkinsonism, the effect of Compound A (PD1) was also tested on motor function in Parkinsonian rats (see FIG. 3) using the limb use asymmetry or cylinder test. The cylinder test was used as an index of behavioral function after unilateral nigrostriatal damage, with explorative activity analyzed as previously described. Animals were placed in a transparent cylinder (20 cm diameter×30 cm height) or in a transparent cage and evaluated over a 5 min period. A mirror was placed behind the cylinder/cage to allow the raters to view forelimb movements when the rat was turned away from the rater. Wall exploration was expressed in terms of the percentage of use of the impaired forelimb (contralateral to the lesion) compared to the total number of limb use movements. Two raters, one blinded to the treatment status of the rats, performed the ratings. Correlation analyses yielded a high inter-rater reliability (R=0.99). […] The rat is placed in a transparent cylinder, which results in vertical exploration and the percentage of contact of the unimpaired and impaired forelimb against the cylinder evaluated (Cenci, M. A. and M. Lundblad, “Post-Versus Presynaptic Plasticity In L-Dopa-lnduced Dyskinesia,”. J Neurochem, 99: 381-392 (2006); Tillerson, J. L. et al., “Forced Limb-Use Effects On The Behavioral And Neurochemical Effects Of 6-Hydroxydopamine,” J Neurosci 21, 4427-35 (2001); and Meredith, G. E. & U. J. Kang, “Behavioral Models Of Parkinson's Disease In Rodents: A New Look At An Old Problem,” Mov Disord, 21: 1595-606 (2006).

[7] = system: Parkinsonian rodents; conditions: cited from earlier work
[8] = system: Parkinsonian nonhuman primates; conditions: cited from earlier work
[9] = 0.1 or 0.3 mg/kg/d via subcutaneous minipump

Row | SMILES | incidence of peripheral side effects [1] | incidence of peripheral side effects [2] | incidence of peripheral side effects [3] | detrimental effects ([4]; acute free base oral doses up to 30 mg/kg) | behavioral sensitization ([4]; rats) | locomotor activity ([4]; rats) | total AIMs ([5]; 0.1 mg/kg/day, second and third assessments) | total AIMs ([5]; 0.3 mg/kg/day, fourth assessment) | L-dopa-induced AIMs, total or some subset (axial, oral and/or forelimb) ([5]; 0.1 and 0.3 mg/kg/day, across multiple assessments, P<0.05 vs control (FIG. 2)) | reduction in oral versus axial AIMs [5, 9] | reduction of total L-dopa-induced AIMs [5, 9] [%] | total AIMs ([5]; first and fifth AIMs assessments) | adverse effects (body weight, body temperature, grooming, urination, defecation, secretion) ([5]; minipump treatment in the AIMs study) | Parkinsonism / motor function, trend ([6]; lesioned rats, either dose tested) | baseline motor function ([6]; off L-dopa, either dose tested, across the experiment) | enhanced limb use with L-dopa treatment ([6]; on L-dopa, either dose tested, across the experiment) | parkinsonism, asymmetric forelimb or cylinder test (FIG. 3) ([6]; two doses, Off or On L-dopa, several occasions) | reduction of L-dopa-induced dyskinetic-like movements ([7]; Parkinsonian rodents) [%] | L-dopa-induced AIMs ([7]; rats, given continuously via osmotic minipump) | reduction of L-dopa-induced dyskinetic-like movements [8] [%]
1 | C(=C\[C@H]1CCNC1)/c1cncnc1 [Compound A, (R)-5-((E)-2-pyrrolidin-3-ylvinyl)pyrimidine] | low incidence of peripheral side effects | low incidence of peripheral side effects | low incidence of peripheral side effects | not associated with any significant detrimental effects | no behavioral sensitization | did not increase locomotor activity | significant decline in total AIMs | significant decline in total AIMs | reduce L-dopa-induced AIMs; also recorded: significant reduction | more pronounced reduction in oral than axial AIMs | ~25 | trends for declines in total AIMs | no detectable adverse effects | small trend for improvement; also recorded: trend for improving Parkinsonism | does not worsen baseline motor function | nor does it worsen the enhanced limb use | do not worsen parkinsonism |  |  | 
2 | CN1CCCC1c1cccnc1 (centres unmarked) [nicotine] |  |  |  |  |  |  |  |  |  |  |  |  |  |  |  |  |  | ~50 | most effectively reduced L-dopa-induced AIMs | ~50
